Test results taken from publication PMC6520522, “In vitro and in vivo Metabolism of a Potent Inhibitor of Soluble Epoxide Hydrolase, 1-(1-Propionylpiperidin-4-yl)-3-(4-(trifluoromethoxy)phenyl)urea” (Frontiers in Pharmacology, 2019).
Where “and” joins values, the source holds several entries; their conditions need not be identical. Identical values can stand only once.

What was measured:
[1] = Metabolite identification/screening by LC-MS/MS (precursor ion scans, LC-MRM-MS) in rats; type: in vivo, rat; conditions: for detection as TPPU metabolite: LC-MS/MS, in vivo in rats (blood, urine), Table 1 footnote: in vitro and in vivo; for share of TPPU metabolism, if formed: not detected by the LC-MRM-MS method; for concentration in rat urine, if formed (below method detection limit): rat urine after oral TPPU, LC-MRM-MS, no peak found, LOD
Description: Healthy male rats (Sprague Dawley, n = 4) were housed in temperature-controlled housing with ad libitum standard chow and drinking water. […]. Both blood and urine samples were collected. Blood samples (10 μL) at time points of 0 (before dosing), 0.25, 0.5, 1, 2, 4, 8, 12, 24, 48, and 72 h post dose were collected from the tail vein. Collected blood samples were transferred to Eppendorf tubes containing 90 μL of EDTA solution (0.1% EDTA and 0.1% acetic acid) and were immediately shaken to avoid blood coagulation. The urine and feces samples were passively collected at the time points of 8, 12, 24, 48, and 72 h post dose. TAPU (10 μL) of 1 μM in methanol was added in each blood and urine sample as an internal standard solution. The blood sample extraction was performed with 200 μL ethyl acetate by liquid-liquid extraction. The representative urine samples were subjected to protein precipitation prior to analysis of TPPU and Phase I metabolites. Briefly, urine (10 μL) was treated with 50 μL acetonitrile. After vortex mixing and centrifugation, the supernatant was collected. The feces samples (50–100 mg) were extracted using 600 μL extraction solution (MeOH: EA = 1:1). The mixtures were kept at −20°C overnight to give efficient extraction of TPPU and its metabolites. On day 2, after vortex mixing and centrifugation, the supernatant was collected. The remaining residue was extracted an additional time with 300 μL extraction solution, and the supernatant was combined after centrifugation. The collected supernatants were dried using a speed vacuum concentrator and reconstituted in 50 μL of 100 nM CUDA solution in methanol. In addition, urine (10 μL) was diluted with water (50 μL) and then subjected to analysis of glucuronide or sulfate conjugates.
(§1) LC-MS/MS analysis was conducted on an Agilent SL 1200 series LC system (Agilent, Palo Alto, CA) connected to a 4,000 Qtrap mass spectrometer (Applied Biosystems Instrument Corporation, Foster City, CA) with Turbo V ion source. Liquid chromatography was performed on a Kinetex® C18 column (100 × 2.1 mm, 1.7 μm). Three μL solution was injected onto the column held at 45°C for analysis. Mobile phase A and B were water with 0.1% acetic acid and acetonitrile with 0.1% acetic acid, respectively. The LC flow rate was 300 μL/min.
(§2) The mass spectrometer was operated in both negative and positive modes. Three different scan types were employed to perform mass spectrometry analysis, including product ion scan, precursor ion scan (optimized parameters in Table S4) and MRM scan (optimized parameters in Table S5).
. The other minor fragment ion at m/z 85 appeared at higher-energy collision induced dissociation (CID, 38 eV) and is derived from the C-O bond cleavage on the trifluoromethoxyphenyl group (Figure 1B). To support the structural identification of TPPU metabolites, six putative metabolites, M1–M4, α-keto amide metabolite and 4-(trifluoromethoxy)aniline were synthesized and analyzed by LC-MS/MS (Figure 2 and Table 2). In the negative ion mode, the fragment ion at m/z 176 was generated by all five synthetic putative metabolites (M1–M4 and α-keto amide metabolite). Apparently, this fragment ion (m/z 176) is a characteristic fragment that is generated by metabolites containing the 4-(trifluoromethoxy)aniline moiety. Therefore, precursor ion scan for m/z 176 can be used to screen for this kind of TPPU metabolite. The method limit of detection (LOD) is 2 ng/mL. In addition, the fragment ion at m/z 85 (from the trifluoro-methoxy) was also generated by these synthetic standards. […]. Therefore, precursor ion scan for m/z 85 can unveil a large number of possible TPPU metabolites, such as the ones-formed from amide hydrolysis and oxidation at aliphatic groups, aromatic ring, and nitrogen center. […]. […]

[2] = Urine levels of TPPU and metabolites after single oral dose in rats; type: in vivo; conditions: male, Sprague Dawley, rat, single oral dose 10 mg/kg TPPU, n = 3; for concentration at 8 h: 8h post dose; for concentration at 12 h: 12h post dose; for concentration at 24 h: 24h post dose; for concentration at 48 h: 48h post dose; for concentration at 72 h: 72h post dose
[3] = Feces levels of TPPU and metabolites after single oral dose in rats; type: in vivo; conditions: rat, single oral dose 10 mg/kg TPPU; for concentration at 8 h: 8h post dose; for concentration at 8 h / concentration at 12 h / concentration at 24 h / concentration at 48 h / concentration at 72 h: n = 3; for concentration at 12 h: 12h post dose; for concentration at 24 h: 24h post dose; for concentration at 48 h: 48h post dose; for concentration at 72 h: 72h post dose
recombinant human sEH = molecular target: T1, recombinant human sEH (Homo sapiens, UniProt P34913); assay: sEH inhibition potency, CMNPC fluorescent assay; type: biochemical; conditions: for IC50: CMNPC fluorescent assay, recombinant human sEH 1 nM, 30°C, average of three replicates, read-out: HsEH IC50
T1 sequence (P34913 1-555): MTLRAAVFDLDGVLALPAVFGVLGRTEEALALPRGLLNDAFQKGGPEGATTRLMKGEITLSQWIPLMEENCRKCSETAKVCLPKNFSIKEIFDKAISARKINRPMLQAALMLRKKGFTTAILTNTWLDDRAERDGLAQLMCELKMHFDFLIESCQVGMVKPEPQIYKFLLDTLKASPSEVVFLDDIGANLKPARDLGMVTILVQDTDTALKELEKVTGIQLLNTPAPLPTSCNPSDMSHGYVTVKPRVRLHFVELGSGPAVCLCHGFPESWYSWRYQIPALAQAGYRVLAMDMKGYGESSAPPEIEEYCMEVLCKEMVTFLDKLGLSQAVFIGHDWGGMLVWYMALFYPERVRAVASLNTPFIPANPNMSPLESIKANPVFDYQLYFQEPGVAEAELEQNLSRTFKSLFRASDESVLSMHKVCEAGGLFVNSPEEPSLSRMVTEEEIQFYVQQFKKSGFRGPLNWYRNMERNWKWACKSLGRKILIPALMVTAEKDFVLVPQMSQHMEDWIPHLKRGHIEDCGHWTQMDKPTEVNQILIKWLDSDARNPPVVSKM
Description: Briefly, recombinant human sEH [1 nM in sodium phosphate buffer (0.1 M, pH = 7.4, 0.1 mg/mL BSA)] was incubated with each analyte (0.1 < [I]final < 10,000 nM) at 30°C for 5 min. Then, the reaction was started with the addition to CMNPC ([S]final = 5 μM). The reaction was monitored kinetically for 10 min at 30°C. The formation of the fluorescent product 6-methoxynaphthaldehyde (λexcitation = 330 nm, λemission = 465 nm, 30°C) was measured every 30 s. IC50 values were determined by regression of the remaining activity in function of the inhibitor concentrations. Assays were run in triplicate and IC50 values are the averages of three replicates.

[4] = In vitro metabolism of TPPU in liver S9 fractions; type: in vitro ADME, human, monkey, dog, rat, mouse; conditions: for formation of metabolite in liver S9 fractions: with NADPH regeneration system, rat, mouse, dog, monkey, human, 2 h; for formation of metabolite in liver S9 fractions in the absence of a NADPH generation system: without NADPH, liver S9 fractions (Figure S1: human)
Description: The in vitro study of TPPU metabolism was conducted following previous methods as described (Watanabe and Hammock, [2001]). Briefly, 1 μL of TPPU (1 mM in DMSO; [TPPU]final = 10 μM) was mixed with 94 μL of diluted liver S9 fractions (final, 0.05 mg protein/mL) from human, monkey, dog, rat, and mouse and incubations were conducted in a 10 mL glass vial. After 5 min preincubation at 37°C, the reaction was initiated by adding 5 μL of NADPH regeneration solution. The NADPH regeneration solution was prepared by mixing 50 μL of NADP^+ (100 mM), 50 μL of G6P (500 mM), 50 μL of G6PDH (100 Unit/mL), and 100 μL of sodium phosphate buffer. Incubation without NADPH regeneration solution was used as control. Reactions were kept for 2 h and terminated by addition of 100 μL of ice-cold methanol containing CUDA (200 nM) as an internal standard. The mixture was followed by vigorous mixing for 2 min and centrifuging at 10,000^*g for 10 min. Each supernatant was transferred to an HPLC vial and kept under 4°C until LC-MS analysis.
as §1

[5] = Blood pharmacokinetics of TPPU and its metabolites after single oral dose in rats; type: in vivo; conditions: for half-life: rat, po, 10 mg/kg, n = 4, read-out: T1/2 (half-life) (converted); for share of the total TPPU-related exposure in blood: single oral dose of TPPU, over 72 h
Description: Healthy male rats (Sprague Dawley, n = 4) were housed in temperature-controlled housing with ad libitum standard chow and drinking water. Each rat received TPPU (dissolved in 0.5 mL PEG400) at a dose of 10 mg/kg by oral gavage in order to generate significant amounts of metabolites while corresponding to previous efficacious concentration doses. Both blood and urine samples were collected. Blood samples (10 μL) at time points of 0 (before dosing), 0.25, 0.5, 1, 2, 4, 8, 12, 24, 48, and 72 h post dose were collected from the tail vein. Collected blood samples were transferred to Eppendorf tubes containing 90 μL of EDTA solution (0.1% EDTA and 0.1% acetic acid) and were immediately shaken to avoid blood coagulation. The urine and feces samples were passively collected at the time points of 8, 12, 24, 48, and 72 h post dose. TAPU (10 μL) of 1 μM in methanol was added in each blood and urine sample as an internal standard solution. The blood sample extraction was performed with 200 μL ethyl acetate by liquid-liquid extraction. The representative urine samples were subjected to protein precipitation prior to analysis of TPPU and Phase I metabolites. Briefly, urine (10 μL) was treated with 50 μL acetonitrile. After vortex mixing and centrifugation, the supernatant was collected. The feces samples (50–100 mg) were extracted using 600 μL extraction solution (MeOH: EA = 1:1). The mixtures were kept at −20°C overnight to give efficient extraction of TPPU and its metabolites. On day 2, after vortex mixing and centrifugation, the supernatant was collected. The remaining residue was extracted an additional time with 300 μL extraction solution, and the supernatant was combined after centrifugation. The collected supernatants were dried using a speed vacuum concentrator and reconstituted in 50 μL of 100 nM CUDA solution in methanol. In addition, urine (10 μL) was diluted with water (50 μL) and then subjected to analysis of glucuronide or sulfate conjugates.
as §1, §2

[6] = male, Sprague Dawley, whole blood, oral gavage 10 mg/kg

Row | Molecule | detection as TPPU metabolite [1] | share of TPPU metabolism, if formed [1] [%] | concentration in rat urine, if formed (below method detection limit) [1] [ng/mL] | concentration at 8 h [2] [ng/mL] | concentration at 12 h [2] [ng/mL] | concentration at 24 h [2] [ng/mL] | concentration at 48 h [2] [ng/mL] | concentration at 72 h [2] [ng/mL] | concentration at 8 h ([3]; male, Sprague Dawley, feces) [ng/mL] | concentration at 12 h ([3]; male, Sprague Dawley, feces) [ng/mL] | concentration at 24 h ([3]; male, Sprague Dawley, feces) [ng/mL] | concentration at 48 h ([3]; male, Sprague Dawley, feces) [ng/mL] | concentration at 72 h ([3]; male, Sprague Dawley, feces) [ng/mL] | IC50 (recombinant human sEH) | formation of metabolite in liver S9 fractions [4] | half-life [5, 6] [h] | share of the total TPPU-related exposure in blood ([5]; rat blood) [%] | formation of metabolite in liver S9 fractions in the absence of a NADPH generation system [4] | further results
1 | 4-(trifluoromethoxy)aniline | not detectable | < 0.01 | < 0.1 |  |  |  |  |  |  |  |  |  |  |  |  |  |  |  | 
2 | O=C(O)CC(=O)N1CCC(NC(=O)Nc2ccc(OC(F)(F)F)cc2)CC1 [Compound M4, 3-oxo-3-(4-(3-(4-(trifluoromethoxy)phenyl)ureido)piperidin-1-yl)propanoic acid] |  |  |  | 1 | 1.1 | 2.4 | 1.2 | 1.7 | 3 | 1.2 | 2.2 | 6.4 | 2.1 | 158 ± 10 nM | not detected | 17 ± 4.7 | < 0.4 |  | Cmax ([3]; male, Sprague Dawley, feces): 22000 ng/mL; time of Cmax in feces [3]: 24 h; Cmax ([5]; male, Sprague Dawley, whole blood, rat blood, oral gavage 10 mg/kg, n = 4, read-out: Cmax (maximum blood concentration)): 53 ± 28 nM
3 | O=C(Nc1ccc(OC(F)(F)F)cc1)NC1CCN(C(=O)CCO)CC1 [Compound M2, 1-(1-(3-hydroxypropanoyl)piperidin-4-yl)-3-(4-(trifluoromethoxy)phenyl)urea] |  |  |  | 2.7 | 3.2 | 7.6 | 3 | 61 ± 60 | 4.3 | 6.8 | 6.7 | 1.9 | 43 ± 31 | 16 ± 2 nM | found in all species tested | 9.7 ± 0.8 | < 0.4 | failed to be detected | 
4 | CC(=O)C(=O)N1CCC(NC(=O)Nc2ccc(OC(F)(F)F)cc2)CC1 [α-Keto amide, 1-(1-(2-oxopropanoyl)piperidin-4-yl)-3-(4-(trifluoromethoxy)phenyl)urea] | not detectable | < 0.01 | < 0.5 |  |  |  |  |  |  |  |  |  |  |  |  |  |  |  | 
5 | O=C(Nc1ccc(OC(F)(F)F)cc1)NC1CCNCC1 [Compound M3, 1-(piperidin-4-yl)-3-(4-(trifluoromethoxy)phenyl)urea] |  |  |  | 2.5 | 2.9 | 1 | 1.5 | 44 ± 21 | 3.6 | 8.3 | 1.1 | 3.4 | 1.7 | 83.5 nM and 83 nM | found in all species tested | 14 ± 2.7 | < 0.4 | could still be produced | fold lower potency than TPPU toward human sEH (recombinant human sEH; ratio of IC50 values, versus TPPU): 80 fold
